Measured values taken from patent publication US8410056B2, “Pro-oxidant anti-cancer compounds” (priority 2006, dated 2013).
Where a name gives a salt, the structure may show the parent alone.

Assays:
[1] = tested on: Jurkat, HBT11, MCF7, MCF7-C3; conditions: Birringer et al, cited from earlier work; for pro-apoptotic activity: compared with α-TOS and isomers; for IC50: Jurkat, HBT11, MCF7, MCF7-C3, 2003
[2] = target: T1, complex II/SDH-dependent activity in NeuTL cells (Mus musculus, UniProt Q8K2B3+Q9CQA3+Q9CXV1+Q9CZB0); experiment: MTT reduction assay of complex II/SDH activity in whole cells; format: cell-based, murine; conditions: absence of added succinate; 4 h
T1 construct: For specifically measuring complex II activity in whole cells; endogenous in cells; host or cells: NeuTL murine breast cancer cells
Description: MTT assay. MTT solutions were prepared immediately before use by dissolving 2.5 mg/ml 3-(4,5-dimethyl[…] (MTT) (Sigma) in PBS alone or phenol red-free RPMI medium containing 20 mM succinic acid, pH 7.4. Stock solutions of 3-nitropropionic acid (3NPA) in ethanol, thenoyltrifluoroacetone (TTFA) in DMSO, 3-BP in PBS, α-TOS in DMSO, and MitoQ (Alleva et al, 2003, James et al, 2005) in ethanol were prepared. The drugs were tested on NeuTL cells cultured in exponential growth phase in 96-well microtitre plates using 4-8 replicate wells per dilution assayed. To assess the ability of MitoQ to restore MTT reduction, cells were pre-incubated for 60 min with 2 or 5 μM MitoQ. Final concentrations of ethanol or DMSO in cultures were ≦0.1%. Treated and control cells were allowed to reduce MTT to blue formazan crystals for 2 or 4 h at 37° C. and 5% CO2. After incubation, culture supernatants were removed except for 30 μl, before the formazan crystals were solubilized by addition of 150 μl DMSO, and absorbance values were measured at 570 nm using a Fluorostar Optima plate reader.
To this end, the present inventors investigated whether α-TOS interferes with UbQ binding in complex II. For specifically measuring complex II activity in whole cells, a short-term (1-2 h) assay was used based on the reduction of the tetrazolium salt, MTT (Maehara et al, 1988). […] For this, oxidative respiration of murine NeuTL breast cancer cells was sustained on high levels of succinate (20 mM), thereby promoting the SDH activity of complex II (Maehara et al, 1988). The cells were then assayed within 1-2 h for their ability to enzymatically reduce MTT, which under conditions of high succinate becomes a specific indicator of complex II/SDH-dependent activity (Maehara et al, 1988, Berridge and Tan, 1993).

Jurkat, U937, Meso-2 = conditions: Tomic-Vatic et al, 2005, cited from earlier work; for IC50: Jurkat, U937, Meso-2; for pro-apoptotic activity: ester bond replaced by amide bond
MCF7 = conditions: cited from earlier work
B16(F10) = conditions: He et al, 1997, cited from earlier work; for IC50: B16(F10)
mesothelioma = experiment: Clinical study, patient with mesothelioma; format: in vivo; conditions: same patient
Description: α-TOS was used to treat mesothelioma in a human cancer patient. […] The blood plasma levels were monitored and levels of α-TOS in the plasma attained 50 μM over prolonged periods during continual application. This is more than sufficient to kill the cancer cells based on in vitro analysis.
The patient was originally receiving high dose opiate medications, neuropathic pain medications, home oxygen, and was predicted to have a life expectancy of 6-8 weeks. After treatment with α-TOS, the patient no longer required analgesia or oxygen.
In December 2005, the patient started receiving transdermal delivery of α-TOS, prepared in a base cream and solubilised with dimethyl sulfoxide (DMSO).
In April 2007, therapy with α-TOS was commenced using a modified formulation mixed in a lipodermal cream (see below). […] In addition, a palpable lesion was visible growing out between the ribs and the right anterior chest wall. The patient was in very poor condition with a low ECOG- no CT scan could be performed at the time of commencing the α-TOS treatment because the patient was too moribund.
α-TOS formulation: 500 gms of Lipoderm cream plus 60 gms α-TOS compounded by the hospital pharmacy. About 30 gms of compounded mix was administered every few days, and the upper body was wrapped in plastic film (“saran wrap”) to improve absorption.

[3] = target: T2, α-tocopherol transfer protein (α-TTP) (Rattus norvegicus, UniProt P41034); conditions: α-tocopherol 100%; Hosomi et al, 1997; cited from earlier work
T2 sequence (P41034 1-278): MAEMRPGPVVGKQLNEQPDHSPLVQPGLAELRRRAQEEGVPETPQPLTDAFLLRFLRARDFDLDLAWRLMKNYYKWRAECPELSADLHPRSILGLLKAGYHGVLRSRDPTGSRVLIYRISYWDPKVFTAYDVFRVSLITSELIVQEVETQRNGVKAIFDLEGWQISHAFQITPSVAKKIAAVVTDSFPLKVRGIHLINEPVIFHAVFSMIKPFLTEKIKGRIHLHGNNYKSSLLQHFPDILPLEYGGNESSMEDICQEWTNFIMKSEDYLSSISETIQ

T1 sequence (Q8K2B3 43-664): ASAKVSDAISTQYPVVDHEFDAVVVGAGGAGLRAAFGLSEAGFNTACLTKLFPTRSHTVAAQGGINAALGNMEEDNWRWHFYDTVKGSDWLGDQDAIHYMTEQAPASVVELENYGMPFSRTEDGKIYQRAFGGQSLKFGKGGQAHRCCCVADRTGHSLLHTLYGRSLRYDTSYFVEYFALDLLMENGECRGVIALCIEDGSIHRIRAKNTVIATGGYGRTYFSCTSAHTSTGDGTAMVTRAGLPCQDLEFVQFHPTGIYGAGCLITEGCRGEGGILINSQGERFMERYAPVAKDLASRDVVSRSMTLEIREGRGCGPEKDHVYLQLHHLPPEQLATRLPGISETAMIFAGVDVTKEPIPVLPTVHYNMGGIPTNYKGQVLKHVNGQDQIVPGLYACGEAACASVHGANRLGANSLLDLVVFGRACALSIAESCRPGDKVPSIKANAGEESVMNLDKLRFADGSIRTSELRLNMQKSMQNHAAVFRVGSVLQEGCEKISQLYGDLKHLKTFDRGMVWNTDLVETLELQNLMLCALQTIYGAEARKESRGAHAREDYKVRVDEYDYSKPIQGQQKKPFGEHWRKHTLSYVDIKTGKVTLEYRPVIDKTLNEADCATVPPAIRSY
T1 sequence (Q9CQA3 31-282): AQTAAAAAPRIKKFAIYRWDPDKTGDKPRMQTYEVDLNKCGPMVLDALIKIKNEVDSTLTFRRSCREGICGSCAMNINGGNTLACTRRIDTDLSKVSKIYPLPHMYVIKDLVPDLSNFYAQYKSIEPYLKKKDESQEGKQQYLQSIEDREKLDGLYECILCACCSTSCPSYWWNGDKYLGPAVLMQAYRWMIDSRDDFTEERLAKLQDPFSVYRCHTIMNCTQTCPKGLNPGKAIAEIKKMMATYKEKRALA
T1 sequence (Q9CZB0 30-169): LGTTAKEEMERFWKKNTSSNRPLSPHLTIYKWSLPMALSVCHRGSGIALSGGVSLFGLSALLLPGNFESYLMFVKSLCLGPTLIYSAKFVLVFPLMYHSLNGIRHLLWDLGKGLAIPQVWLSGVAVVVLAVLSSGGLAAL
T1 sequence (Q9CXV1 57-159): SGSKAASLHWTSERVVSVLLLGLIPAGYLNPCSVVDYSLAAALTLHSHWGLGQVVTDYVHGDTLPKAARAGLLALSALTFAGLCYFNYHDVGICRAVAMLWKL

Cc1c(C)c2c(c(C)c1OC(=O)C=CC(=O)O)CCC(C)(CCCC(C)CCCC(C)CCCC(C)C)O2 (stereo not drawn) [Compound 3, α-tocopheryl maleate]
pro-apoptotic activity [1]: Even greater pro-apoptotic activity
IC50 [1]: 22 µM

O=C(O)CC[N+](=O)[O-] [Compound 3NPA, 3-nitropropionic acid]
complex II-mediated MTT reduction [2]: potent inhibitors of the complex II-mediated MTT reduction

Cc1c(C)c2c(c(C)c1OC(=O)CCCC(=O)O)CCC(C)(CCCC(C)CCCC(C)CCCC(C)C)O2 (stereo not shown) [Compound 5]
pro-apoptotic activity [1]: decreased activity

Cc1c(C)c2c(c(C)c1OC(=O)CC(C)CC(=O)O)CCC(C)(CCCC(C)CCCC(C)CCCC(C)C)O2 (stereo not shown) [Compound 6]
pro-apoptotic activity [1]: decreased activity

Cc1c(C)c2c(c(C)c1OC(=O)CC(C)(C)CC(=O)O)CCC(C)(CCCC(C)CCCC(C)CCCC(C)C)O2 (stereo not shown) [Compound 7]
pro-apoptotic activity [1]: decreased activity

COC(=O)CCC(=O)Oc1c(C)c(C)c2c(c1C)CCC(C)(CCCC(C)CCCC(C)CCCC(C)C)O2 (stereo not shown) [Compound 9]
pro-apoptotic activity [1]: without pro-apoptotic activity

Cc1c(C)c2c(c(C)c1NC(=O)CCC(=O)O)CCC(C)(CCCC(C)CCCC(C)CCCC(C)C)O2 (stereo not shown) [Compound 12]
IC50 (Jurkat, U937, Meso-2): 13 µM
pro-apoptotic activity (Jurkat, U937, Meso-2): further enhancement of pro-apoptotic activity

Cc1c(C)c2c(c(C)c1NC(=O)C=CC(=O)O)CCC(C)(CCCC(C)CCCC(C)CCCC(C)C)O2 (stereo not shown) [Compound 13]
IC50 (Jurkat, U937, Meso-2): 2 µM
pro-apoptotic activity (Jurkat, U937, Meso-2): further enhancement of pro-apoptotic activity

COC(=O)CCC(=O)Nc1c(C)c(C)c2c(c1C)CCC(C)(CCCC(C)CCCC(C)CCCC(C)C)O2 (stereo not shown) [Compound 14]
IC50 (Jurkat, U937, Meso-2): > 100 µM

Cc1c(C)c2c(c(C)c1OC(=O)C(N)CCCCN)CCC(C)(CCCC(C)CCCC(C)CCCC(C)C)O2 (stereo not shown) [Compound 16]
IC50 (MCF7): 12 µM

Cc1c(C)c2c(c(C)c1CC(=O)O)CCC(C)(CCCC(C)CCCC(C)CCCC(C)C)O2 (stereo not shown) [Compound 22]
EC50 [μg/ml] (MCF7; Shiau et al, 2006, footnote g): 15-20^g μg/ml

Cc1cc(OC(=O)CCC(=O)O)cc2c1OC(C)(CCCC(C)CCCC(C)CCCC(C)C)CC2 (stereo not shown) [Compound 35]
pro-apoptotic activity [1]: least effective
IC50 [1]: 66 µM

Cc1cc(OC(=O)C=CC(=O)O)cc2c1OC(C)(CCCC(C)CCCC(C)CCCC(C)C)CC2 (stereo not shown) [Compound 36]
IC50 (Jurkat, U937, Meso-2): 49 µM

Cc1cc(NC(=O)CCC(=O)O)cc2c1OC(C)(CCCC(C)CCCC(C)CCCC(C)C)CC2 (stereo not shown) [Compound 37]
IC50 (Jurkat, U937, Meso-2): 20 µM
pro-apoptotic activity (Jurkat, U937, Meso-2): further enhancement of pro-apoptotic activity

Cc1cc(NC(=O)C=CC(=O)O)cc2c1OC(C)(CCCC(C)CCCC(C)CCCC(C)C)CC2 (stereo not shown) [Compound 38]
IC50 (Jurkat, U937, Meso-2): 9 µM
pro-apoptotic activity (Jurkat, U937, Meso-2): further enhancement of pro-apoptotic activity

Cc1c(C)c2c(c(C)c1OC(=O)C(N)CCCCN)CCC(C)(CO)O2 (stereo not shown) [Compound 47]
IC50 (MCF7): 194 µM

CCCCCOCC1(C)CCc2c(C)c(OC(=O)C(N)CCCCN)c(C)c(C)c2O1 (stereo not shown) [Compound 48]
IC50 (MCF7): 22 µM

CCCCC(=O)OCC1(C)CCc2c(C)c(OC(=O)C(N)CCCCN)c(C)c(C)c2O1 (stereo not shown) [Compound 49]
IC50 (MCF7): 15 µM

CC(C)=CCC/C(C)=C/CC/C(C)=C/CC[C@]1(C)CCc2cc(O)cc(C)c2O1 [Compound 59, δ-tocotrienol]
IC50 (B16(F10)): 10 µM
potency in the murine B16-F10 melanoma cell model (B16(F10)): most potent agent

CC(C)=CCC/C(C)=C/CC/C(C)=C/CCC1(C)CCc2cc(O)ccc2O1 (stereo not shown) [Compound 60, desmethyl tocotrienol]
IC50 (B16(F10)): 0.9 µM

Nc1ccn([C@@H]2O[C@H](CO)[C@@H](O)C2(F)F)c(=O)n1 [Gemcitabine, reference compound]
toxicity of other therapies (medical history) (mesothelioma): unacceptable levels of toxicity

CCC1=C[C@@H]2CN(C1)Cc1c([nH]c3ccccc13)[C@@](C(=O)OC)(c1cc3c(cc1OC)N(C)[C@H]1[C@@](O)(C(=O)OC)[C@H](OC(C)=O)[C@]4(CC)C=CCN5CC[C@]31[C@@H]54)C2 [Vinorelbine, reference compound]
toxicity of other therapies (medical history) (mesothelioma): severe exacerbation of peripheral neuropathy

Oc1ccc(C2=Cc3ccc(O)cc3OC2)cc1 [phenoxodiol, reference compound]
toxicity of other therapies (medical history) (mesothelioma): ongoing severe neuropathy

Cc1c(C)c2c(c(C)c1O)CC[C@@](C)(CCC[C@H](C)CCC[C@H](C)CCCC(C)C)O2 [α-tocopherol]
relative affinities for α-TTP [3]: 100%

Cc1cc(O)c(C)c2c1O[C@](C)(CCC[C@H](C)CCC[C@H](C)CCCC(C)C)CC2 [β-tocopherol]
relative affinities for α-TTP [3]: 38%

Cc1c(O)cc2c(c1C)O[C@](C)(CCC[C@H](C)CCC[C@H](C)CCCC(C)C)CC2 [γ-tocopherol]
relative affinities for α-TTP [3]: 9%

Cc1cc(O)cc2c1O[C@](C)(CCC[C@H](C)CCC[C@H](C)CCCC(C)C)CC2 [δ-tocopherol]
relative affinities for α-TTP [3]: 2%
